Laboratory results from ChEMBL document CHEMBL4651402, “Screening of ~5500 FDA-approved drugs and clinical candidates for anti-SARS-CoV-2 activity” (2021).

System: SARS-CoV-2
Test: microbe, parasite or virus in culture
Details: Severe acute respiratory syndrome coronavirus 2, Vero C1008, 48 h

SMILES | IC50 [µM] | IC50 (read-out: pIC50 (converted)) [µM]
CCC(C(=O)NC(N)=O)c1ccccc1 (configuration not stated) [PHENETURIDE] | > 20 | > 20
CCCC(C)(COC(N)=O)COC(N)=O [MEPROBAMATE] | > 20 | > 20
CN(C)CCN(Cc1ccc(Cl)s1)c1ccccn1 [CHLOROTHEN] | > 20 | > 20
CCC[C@@H]1C[C@@H](C(=O)N[C@@H]([C@H]2O[C@H](SC)[C@H](O)[C@@H](O)[C@@H]2O)[C@@H](C)O)N(C)C1 | > 20 | > 20
CCOC(=O)C(COC(=O)Cc1ccc(NC(=O)c2ccccc2-c2ccc(C(F)(F)F)cc2)c(C(=O)N(C)C)c1)(C(=O)OCC)c1ccccc1 [GRANOTAPIDE] | > 20 | > 20
C[C@@H]1c2nnn(-c3ncc(F)cn3)c2CCN1C(=O)c1cccc(C(F)(F)F)c1Cl [JNJ-54175446] | > 20 | > 20
CO/N=C(\C(=O)N[C@@H]1C(=O)N2C(C(=O)O)=C(COC(N)=O)CS[C@H]12)c1ccco1 [CEFUROXIME] | > 20 | > 20
Oc1ccc2c(c1)CC[C@H](c1ccccc1)[C@@H]2c1ccc(OCCN2CCCC2)cc1 [LASOFOXIFENE] | > 20 | > 20
O=C(O)C1=CCNCC1 [ISOGUVACINE] | > 20 | > 20
CCN(CC)CC(C)OC(=O)[C@H]1CCCC[C@]1(O)C1CCCCC1 (some centres not stated) | > 20 | > 20
COc1ccc(CC(N)C(=O)NC2C(CO)OC(n3cnc4c(N(C)C)ncnc43)C2O)cc1 (configuration not stated) | > 20 | > 20
O=C1NOCC1/N=C/c1ccc(/C=N/C2CONC2=O)cc1 (configuration not stated) [TERIZIDONE] | > 20 | > 20
O=c1[nH]c(=O)n([C@H]2C[C@H](O)[C@@H](CO)O2)cc1C(F)(F)F [TRIFLURIDINE] | > 20 | > 20
CC(=O)N[C@@H](CC(C)C)C(=O)O | > 20 | > 20
CCOC(=O)[C@H](CCc1ccccc1)N[C@@H](C)C(=O)N1[C@H](C(=O)O)C[C@H]2CCCC[C@@H]21 [TRANDOLAPRIL] | > 20 | > 20
COC(=O)N[C@H](C(=O)N1CC2(CC2)C[C@H]1c1nc(-c2ccc3c(c2)C(F)(F)c2cc(-c4ccc5[nH]c([C@@H]6[C@H]7CC[C@H](C7)N6C(=O)[C@@H](NC(=O)OC)C(C)C)nc5c4)ccc2-3)c[nH]1)C(C)C | > 20 | > 20
C/C=C1\C(=O)C[C@H]2[C@@H]3CCC4=CC(=O)CC[C@]4(C)[C@H]3CC[C@]12C [GUGGULSTERONE] | > 20 | > 20
OCCN1C[C@H](O)[C@@H](O)[C@H](O)[C@H]1CO [MIGLITOL] | > 20 | > 20

SMILES | IC50 [µM] | IC50 (read-out: pIC50 (converted)) [µM]
O=C(CN1CCNCC1)NC1CCCCC1 [ESAPRAZOLE] | > 20 | > 20
CC(=O)NCC1(c2ccccc2)CCN(CC2COc3ccccc3O2)CC1 (configuration not stated) [ACOXATRINE] | > 20 | > 20
CC(=O)Nc1cccc(O)c1 [METACETAMOL] | > 20 | > 20
NCC1CCC(C(=O)Oc2ccc(CCC(=O)O)cc2)CC1 (configuration not stated) | > 20 | > 20
CSc1ccc2ncn(/C=C/C(=O)O)c(=O)c2c1 | > 20 | > 20
COCCNc1cc(NC(=O)N2CCCc3cc(CN4CCN(C)CC4=O)c(C=O)nc32)ncc1C#N [FGF401] | > 20 | > 20
CCCC(=O)Nc1ncnc2c1ncn2[C@@H]1O[C@@H]2OP(=O)(O)OC[C@H]2[C@H]1OC(=O)CCC | > 20 | > 20
Cn1c(=O)n(-c2ccc(C(C)(C)C#N)cc2)c2c3cc(-c4cnc5ccccc5c4)ccc3ncc21 [DACTOLISIB] | > 20 | > 20
CNC(=O)c1ccc2cc([C@]3(O)CCn4cncc43)ccc2c1 | > 20 | > 20
COP(=O)(OC)OC(c1ccc(Cl)cc1)P(=O)(OC)OC (configuration not stated) [MIFOBATE] | > 20 | > 20
Cc1c(Cn2ccnc2)c2ccccc2n1CCC(=O)O [DAZMEGREL] | > 20 | > 20
Cc1cc(Nc2ccc(S(F)(F)(F)(F)F)cc2)n2nc(C(C)(F)F)nc2n1 [DSM-265] | > 20 | > 20
NC(=O)N1c2ccccc2C=Cc2ccccc21 [CARBAMAZEPINE] | > 20 | > 20
O[C@@H](COc1cccc2ncccc12)CN1CCN([C@@H]2c3ccccc3[C@@H]3[C@H](c4ccccc42)C3(F)F)CC1 [ZOSUQUIDAR] | > 20 | > 20
CC/C(=C(\c1ccc(O)cc1)c1ccc(OCCN(C)C)cc1)c1ccccc1 [AFIMOXIFENE] | > 20 | > 20
COC(=O)C1=COC(C)C2C[n+]3ccc4c([nH]c5ccccc54)c3CC12 (configuration not stated) | > 20 | > 20
CN(C)CCCn1c(=O)c2ccccc2c2ccccc21 [FANTRIDONE] | > 20 | > 20
COc1ccc(C(=O)Cc2c(CCN(C)C)cc3c(c2OC)OCO3)c(C(=O)O)c1OC [NARCEINE] | > 20 | > 20
